From article PMC6608564 (Journal of the Endocrine Society, 2019)
Each block holds one molecule with its values, some of them ahead of it.

Assays:
human OXTR = target: T1, human OXTR (Homo sapiens, UniProt P30559); assay: FLIPR calcium assay, AV12 cells stably expressing human OXTR; assay type: cell-based; conditions: Fig. 1 and Dryad data [67]; for receptor selectivity against vasopressin receptors (in words): OXTR vs V1a, V1b (FLIPR) and V2 (cAMP); for OXTR activity / potency (in words): in vitro OXTR assay
T1 sequence (P30559 1-389): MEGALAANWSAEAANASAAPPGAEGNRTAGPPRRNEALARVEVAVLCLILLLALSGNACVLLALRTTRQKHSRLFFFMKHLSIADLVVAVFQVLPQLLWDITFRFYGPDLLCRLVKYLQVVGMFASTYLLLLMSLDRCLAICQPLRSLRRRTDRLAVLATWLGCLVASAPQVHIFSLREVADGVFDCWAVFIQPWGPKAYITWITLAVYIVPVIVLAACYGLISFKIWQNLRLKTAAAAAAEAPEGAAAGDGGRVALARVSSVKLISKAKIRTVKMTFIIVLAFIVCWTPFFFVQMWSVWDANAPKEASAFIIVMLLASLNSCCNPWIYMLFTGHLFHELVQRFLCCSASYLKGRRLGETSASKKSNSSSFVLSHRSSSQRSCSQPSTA

[1] = Pharmacokinetic measurement by mass spectrometry in mice; assay type: in vivo, C57BL/6 mice
[2] = Rat blood pressure telemetry; assay type: in vivo, DIO male Long-Evans rats; conditions: IP 0.3, 1, 3 mg/kg, DIO Long-Evans rats
[3] = Food intake study with free-hand ICV injection; assay type: in vivo, male C57BL/6 mice; conditions: 3 μg per mouse ICV
[4] = Chronic OXT analog treatment in DIO mice; assay type: in vivo, C57BL/6 DIO mice; conditions: vs vehicle
Acute food intake study = assay type: in vivo, male C57BL/6 mice; conditions: conivaptan 0.5 mg/kg IP coadministered with OXT 2 mg/kg IP, Fig. 3F
[5] = C57BL/6, mouse, plasma, ip, 1 mg/kg

OXTR activity / potency (in words) (human OXTR): without affecting OXTR activation
Molecule: carbetocin [OXT^Butyryl]
receptor selectivity against vasopressin receptors (in words) (human OXTR): increased receptor selectivity against vasopressin receptors

time until plasma level dropped below detection ([1]; 1 mg/kg IP, single dose, Fig. 2A): < 3 h | Tmax [1, 5]: ~30 min | half-life [1, 5]: < 30 min | behavior during first hour after ICV injection (vocalization, grooming) [3]: clinical signs of behavioral distress | serum potassium level [4]: significantly lower
Molecule: CC[C@H](C)[C@@H]1NC(=O)[C@H](Cc2ccc(O)cc2)NC(=O)[C@@H](N)CSSC[C@@H](C(=O)N2CCC[C@H]2C(=O)N[C@@H](CC(C)C)C(=O)NCC(N)=O)NC(=O)[C@H](CC(N)=O)NC(=O)[C@H](CCC(N)=O)NC1=O [OXT, oxytocin]
mean arterial pressure (MAP) [2]: dose-dependently caused a statistically significant increase of MAP

receptor selectivity against vasopressin receptors (in words) (human OXTR): high degree of OXTR selectivity
Molecule: TC OT39
OXTR activity / potency (in words) (human OXTR): significantly decreased potency (EC50) and efficacy (Emax)

Molecule: Cc1nc2c([nH]1)-c1ccccc1N(C(=O)c1ccc(NC(=O)c3ccccc3-c3ccccc3)cc1)CC2 [conivaptan]
effect on OXT-induced food intake suppression (Acute food intake study): abolished OXT’s effect on food intake suppression
